From the NIST ThermoML archive (doi:10.1021/je300776s)

Conditions: for mass density: Vibrating tube method; for vapor or sublimation pressure: Closed cell (Static) method; for viscosity: Capillary tube (Ostwald / Ubbelohde) method; for surface tension liquid-gas: Capillary rise

FC(F)(F)/C=C/Cl [(E)-1-chloro-3,3,3-trifluoroprop-1-ene]
Conditions	Critical temperature [K]	mass density [kg/m3]	vapor or sublimation pressure [kPa]
243.34 K, Liquid	–	1384.7	–
243.7 K, Liquid	–	1383.98	–
248.07 K, Liquid	–	1371.38	–
251.12 K, Liquid	–	1367.4	–
253.56 K, Liquid	–	1362.51	–
255.66 K, Liquid	–	1360.3	–
263.09 K, Liquid	–	–	29.85
263.36 K, Liquid	–	1341.34	–
271.16 K, Liquid	–	1323.65	–
272.95 K, Liquid	–	–	44.51
273.1 K, Liquid	–	–	47.57
273.17 K, Liquid	–	1319.65	–
282.95 K, Liquid	–	–	71.41
283.08 K, Liquid	–	–	72.74
283.26 K, Liquid	–	1296.48	–
290.16 K, Liquid	–	1280.22	–
291.98 K, Liquid	–	1276.01	–
293.05 K, Liquid	–	–	107.99
293.08 K, Liquid	–	–	106.52
293.21 K, Liquid	–	1273.37	–
302.85 K, Liquid	–	–	148.21
303.01 K, Liquid	–	–	152.1
312.25 K, Liquid	–	–	203.33
312.93 K, Liquid	–	–	210.08
321.85 K, Liquid	–	–	279.37
323 K, Liquid	–	–	282.13
332.93 K, Liquid	–	–	382.66
342.92 K, Liquid	–	–	502.28
352.84 K, Liquid	–	–	641.35
Liquid, Visual observation in an unstirred cell	438.75	–	–

Liquid
Conditions	viscosity [mPa·s]
270.24 K, 100 kPa	0.705
292.03 K, 150 kPa	0.506
314.25 K, 300 kPa	0.3851
336.37 K, 500 kPa	0.294
353.52 K, 800 kPa	0.2369
379.56 K, 1350 kPa	0.1763

Conditions	surface tension liquid-gas [mN/m]
273.15 K	16.48
298.15 K	12.68
323.15 K	9.01
